Experimental data published in patent US7504380B2, “Antimicrobial peptide isolated from halocynthia aurantium” (Industry-Academic Cooperation Foundation, Hoseo University, priority 2002, dated 2009).

Experiments:
[1] = test system: methicillin resistance Staphylococcus aureus (MRSA); test: ultrasensitive radial diffusion assay, MRSA; format: cell-based; design: antimicrobial activity according to pH, MRSA / antimicrobial activity according to NaCl, MRSA: unit not given here; details: for antimicrobial activity to MRSA strain (diameter of clear zone): according to the concentration of the peptides, FIG. 9A, 9C
Procedure: (§1) In order to measure the antimicrobial activity of acid extracts of Halocynthia aurantium obtained in the above Example <1-1>, the present inventors performed ultrasensitive radial diffusion assay. Particularly, analyzed 150 fractions eluted in the above Example <1-1> 5 times each. Took 100 μl from 2 ml of each fraction and concentrated thereof with a vacuum centrifugation (Centra Evaporator, Bioneer, Korea), which was suspended in 5 μl of 0.01% acetic acid solution. Meanwhile, prepared agarose plate including wells 3 mm in diameter by adding methicillin resistance Staphylococcus aureus (referred as “MRSA” hereinafter, Seoul Women's University, Korea CCARM3001) of mid-logarithmic phase to gel comprising sterilized citrate phosphate buffer (9 mM sodium phosphate, 1 mM sodium citrate, pH 7.4), 1% (w/v) type 1 agarose (low electroendosmosis agarose) (A 6013, Sigma) and 3% tryptic soy broth (TSB, Difco, Detroit, Mich., USA). Loaded the above fractions onto the wells of agarose plate containing the above bacteria. Reacted thereof for 3 hours to make the peptides spread into the agarose gel. Added 10 ml of overnutrition medium comprising 6% TSB and 1% agarose gel thereto. Cultured the above plate for overnight until the colonies of the above bacteria were formed. Confirmed the antimicrobial activity of the loaded peptide by measuring the diameter of clearing zone formed around the loaded peptide fraction.
(§2) The present inventors performed ultra-sensitive radical diffusion assay with synthetic peptides prepared in the above Example <2-2>. Particularly, measured antimicrobial activity of each 15Hc, di-15Hc, 18Hc, di-18Hc, halocidin, magainin 1 (Sigma) (control group) and buforin 2 (Sigma) (comparative group) against MRSA and multi drug resistance Pseudomonas aeruginosa (referred as “MDRPA” hereinafter)(Seoul Women's University CCARM2002) according to the concentration of the peptides.
(§3) Particularly, adjusted the pH of media to 7.4, 6.5 and 5.5 respectively by adding HCl, which was checked with a pH meter, and performed radical diffusion assay with the same method as the above Example 1 to investigate the antimicrobial activity to MRSA and Enterococcus faecalis.
(§4) Particularly, changed the basic condition of media by adding 100 mM NaCl, 150 mM NaCl and 200 mM NaCl respectively, and investigated the antimicrobial activity to MRSA and Enterococcus faecalis by radical diffusion assay.

Enterococcus faecalis = test: radial diffusion assay, Enterococcus faecalis; format: cell-based; design: unit not given here
Procedure: as §1, §3, §4

[2] = test system: multi drug resistance Pseudomonas aeruginosa (MDRPA); test: ultra-sensitive radial diffusion assay, MDRPA; format: cell-based; details: according to the concentration of the peptides; FIG. 9B, 9D
Procedure: as §1, §2

[3] = test system: Gram-positive bacteria such as Staphylococcus aureus, Micrococcus luteus, Enterococcus faecalis, Bacillus subtilus and MRSA; test: radial diffusion assay, Gram-positive bacteria; format: cell-based; details: FIG. 15-17
Procedure: In order to measure the antimicrobial activity of acid extracts of Halocynthia aurantium obtained in the above Example <1-1>, the present inventors performed ultrasensitive radial diffusion assay. Particularly, analyzed 150 fractions eluted in the above Example <1-1> 5 times each. Took 100 μl from 2 ml of each fraction and concentrated thereof with a vacuum centrifugation (Centra Evaporator, Bioneer, Korea), which was suspended in 5 μl of 0.01% acetic acid solution. Meanwhile, prepared agarose plate including wells 3 mm in diameter by adding methicillin resistance Staphylococcus aureus (referred as “MRSA” hereinafter, Seoul Women's University, Korea CCARM3001) of mid-logarithmic phase to gel comprising sterilized citrate phosphate buffer (9 mM sodium phosphate, 1 mM sodium citrate, pH 7.4), 1% (w/v) type 1 agarose (low electroendosmosis agarose) (A 6013, Sigma) and 3% tryptic soy broth (TSB, Difco, Detroit, Mich., USA). Loaded the above fractions onto the wells of agarose plate containing the above bacteria. Reacted thereof for 3 hours to make the peptides spread into the agarose gel. Added 10 ml of overnutrition medium comprising 6% TSB and 1% agarose gel thereto. Cultured the above plate for overnight until the colonies of the above bacteria were formed. […]

human erythrocytes = format: cell-based
Procedure: In order to investigate […] of halocidin, the present inventors performed hemolytic assay. Particularly, mixed 20 μl of peptide diluted to 100, 50, 25, 12.5, 6.25, 3.125 μg/ml and 180 μl of 2.5% (V/V) human erythrocytes in PBS. Used melittin (Sigma) and clavanin AK, a congener in which clavanin A residue was substituted, for comparative group, and 0.01% acetic acid for control group. After reacting the mixture at 37° C. for 30 minutes, added 600 μl of PBS into each tube. Centrifuged the solution at 10,000 g for 3 minutes and separated supernatants. Measured OD at 540 nm and calculated the hemolytic activity (%) according to the below <Mathematical Formula 1>.

[4] = test system: Gram negative bacteria such as Pseudomonas aeruginosa, Salmonella cholerasuis, Salmonella parotyphi A, E. coli K112 and E. coli DH5α; test: radial diffusion assay, Gram-negative bacteria; format: cell-based; details: FIG. 12-14
MDRPA strain = test: colony counting assay, MDRPA; format: cell-based, Pseudomonas aeruginosa; details: peptide 5 μg/ml, 5 and 15 minutes; FIG. 10
Procedure: (§5) In order to investigate antimicrobial activity of halocidin, the present inventors performed colony counting assay. Particularly, adjusted the final concentration of the peptide to 5 μg/ml by mixing the peptide and MRSA strain or MDRPA strain of mid-log phase in sterilized 10 mM sodium phosphate buffer (pH 7.4) containing 0.3 mg/id of TSB powder. Adjusted the final volume of the above mixture to 100 μl, and then let it be pre-reacted in a 37° C. shaking water bath for 5 and 15 minutes each. Collected 20 μl of pre-reacted solution and loaded thereof onto 1.5% bacto-agar plate (Difco). Induced reaction for overnight and counted the number of formed colonies on the above plate, from which measured the antimicrobial activity. Used magainin 1 and buforin 2 for comparative group, and 0.01% acetic acid for control group.

MRSA strain = test: colony counting assay, MRSA; format: cell-based, Staphylococcus aureus; details: peptide 5 μg/ml, 5 and 15 minutes; FIG. 10
Procedure: as §5

Substance | antimicrobial activity according to NaCl, MRSA ([1]; NaCl 100 mM) | antimicrobial activity according to NaCl, MRSA ([1]; NaCl 150 mM) | antimicrobial activity according to NaCl, MRSA ([1]; NaCl 200 mM) | antimicrobial activity according to pH, MRSA ([1]; pH = 5.5) | antimicrobial activity according to pH, MRSA ([1]; pH = 6.5) | antimicrobial activity according to pH, MRSA ([1]; pH = 7.4) | antimicrobial activity according to NaCl, Enterococcus faecalis (Enterococcus faecalis; NaCl 100 mM) | antimicrobial activity according to NaCl, Enterococcus faecalis (Enterococcus faecalis; NaCl 150 mM) | antimicrobial activity according to NaCl, Enterococcus faecalis (Enterococcus faecalis; NaCl 200 mM) | antimicrobial activity according to pH, Enterococcus faecalis (Enterococcus faecalis; pH = 5.5) | antimicrobial activity according to pH, Enterococcus faecalis (Enterococcus faecalis; pH = 6.5) | antimicrobial activity according to pH, Enterococcus faecalis (Enterococcus faecalis; pH = 7.4) | antimicrobial activity to MDRPA strain (diameter of clear zone) [2] | antimicrobial activity to Gram-positive bacteria [3] | hemolytic activity (human erythrocytes) [%] | antimicrobial activity to Gram-negative bacteria [4] | antimicrobial activity to MRSA strain (diameter of clear zone) [1] | antimicrobial activity by colony counting, MDRPA (MDRPA strain) | antimicrobial activity by colony counting, MRSA (MRSA strain)
Magainin 1 (GIGKFLHSAGKFGKAFVGEIMKS; Magainin-1; UniProt P11006 37-59, looked up) [magainin 1 (Sigma), control/comparative antimicrobial peptide] | >64 | >64 | >64 | >64 | >64 | >64 | >64 | >64 | >64 | >64 | >64 | >64 | proved to have antimicrobial activity | – | – | – | – | – | –
KWLNALLHHGLNCAKGVLA (PEPTIDE (1)..(19) 19mer of halocydin; listed as Halocynthia aurantium) [K(18 + 1)Hc, ID; No 9] | 16-32 | 16-32 | 32-64 | 32-64 | 16-32 | 16-32 | 16-32 | 16-32 | 16-32 | 16-32 | 16-32 | 8-16 | – | – | – | – | – | – | –
15Hc: 15-amino-acid monomer of halocidin; 18Hc lacking three N-terminal amino acids, SEQ. ID. No 2 (WLNALLHHGLNCAKG; PEPTIDE (1)..(1) 15mer of halocydin; listed as Halocynthia aurantium) [Peptide 15Hc, 15-amino-acid monomer of halocidin; ID; No 2] | – | – | – | – | – | – | – | – | – | – | – | – | higher antimicrobial activity than comparative group | low antimicrobial activity | 0 | hardly showed or had minimum antimicrobial activity | – | – | –
WLNALLHHGLNCAKGVLA (PEPTIDE (1)..(1) 18mer of halocydin; listed as Halocynthia aurantium) [Peptide 18Hc, ID; No 1] | – | – | – | – | – | – | – | – | – | – | – | – | higher antimicrobial activity than comparative group | low antimicrobial activity | 9 | hardly showed or had minimum antimicrobial activity | higher antimicrobial activity than buforin 2 | high antimicrobial activity | high antimicrobial activity
Secrofin A | >64 | >64 | >64 | >64 | >64 | >64 | >64 | >64 | >64 | >64 | >64 | >64 | – | – | – | – | – | – | –
Buforin 2 | >64 | >64 | >64 | >64 | >64 | >64 | >64 | >64 | >64 | >64 | >64 | >64 | proved to have antimicrobial activity | – | – | – | proved to have antimicrobial activity | – | –
